Assay results: patent publication US20260091031A1, “CGRP RECEPTOR ANTAGONISTS FOR TREATING CHEMOTHERAPY-INDUCED NAUSEA AND VOMITING (CINV)” (priority 2022, published 2026)

Tests used:
[1] = Accumulation of gepants in trigeminal ganglion and cerebral cortex after oral administration (LC/MS of tissue extracts); assay type: in vivo; conditions: rat, 3 mg/kg oral, 6 hrs after administration, transcardially perfused 10 min
Method: Animals have been transcardially perfused with cold saline for 10 min in order to remove blood contamination and the possible presence of gepants present in plasma. Upon perfusion, tissue specimens form the cerebral cortex (a region beyond the blood brain barrier) and from the trigeminal ganglion (a region before the blood brain barrier) have been collected and extracted with 10 volumes (weight/volume) of a solution of water/acetonitrile (50%/50%). Tissue extracts have been injected in a LC/MS apparatus to reveal the possible presence of the orally-administered gepants.
FIG. 1. Evaluation of the ability of gepants to accumulate within the trigeminal ganglion and cerebral cortex upon oral administration in the rat. […] Animals have been transcardially perfused for 10 min to remove contamination by gepants present in plasma.

[2] = tested on: nausea induced by cisplatin or cyclophosphamide in the rat; assay: Gaping events as index of nausea induced by cisplatin or cyclophosphamide; assay type: in vivo; conditions: 3 mg/kg oral 6 hrs before cisplatin (6 mg/kg i.p.) or cyclophosphamide (40 mg/kg i.p.), monitored for 4 hrs
Method: It is known that the induction of nausea by a chemical can be evaluated in rats measuring repetitive mouth opening (the so called “gaping”) (Autonomic Neuroscience, 2006, 129, 36-41). We have therefore evaluated the effects of rimegepant, ubrogepant, atogepant and zavegepant (3 mg/kg) on gaping prompted in rats by the anticancer drugs cisplatin (6 mg/kg, i.p.) or cyclophosphamide (40 mg/kg, i.p.). These drugs have been injected 6 hrs after the oral administration of the gepants to allow complete tissue drug absorption and distribution. Gaping was monitored for 4 hrs.
FIG. 2. Effects of gepants on nausea induced by cisplatin or cyclophosphamide in the rat. Rats (10 animals/group) received rimegepant, ubrogepant, atogepant and zavegepant orally (3 mg/kg) 6 hrs before an intraperitoneal injection of cisplatin (6 mg/kg) or cyclophosphamide (40 mg/kg). The number of gaping events were evaluated for 4 hrs as an index of nausea.

[3] = tested on: vomiting induced by cisplatin or cyclophosphamide in the shrew; assay: Vomiting events induced by cisplatin or cyclophosphamide; assay type: in vivo, shrew (Suncus Murinus); conditions: 3 mg/kg oral 6 hrs before cisplatin (6 mg/kg i.p.) or cyclophosphamide (40 mg/kg i.p.), monitored for 4 hrs
Method: Specifically, we have evaluated the effects of the oral administration of rimegepant, ubrogepant, atogepant and zavegepant (3 mg/kg) on vomiting events induced in the shrew by cisplatin (6 mg/kg i.p.) or cyclophosphamide (40 mg/kg i.p.). To allow complete gepant absorption and tissue distribution, cisplatin and cyclophosphamide have been administered 6 hrs after the gepants and animals monitored for 4 hrs.
FIG. 3. Effects of gepants on vomiting induced by cisplatin or cyclophosphamide in the shrew. Shrews (10 animals/group) have been orally administered with rimegepant, ubrogepant, atogepant and zavegepant (3 mg/kg) 6 hrs before the intraperitoneal injection of cisplatin (6 mg/kg) or cyclophosphamide (40 mg/kg) and the number of vomiting events evaluated for 4 hrs.

Row | presence in brain cortex extracts [1] | presence in trigeminal ganglion extracts [1] | Compound | number of gaping events (index of nausea) compared to controls [2] | number of vomiting events compared to controls [3]
1 | detectable | detectable | C[C@@H]1[C@H](c2ccccc2)C[C@H](NC(=O)c2cnc3c(c2)C[C@@]2(C3)C(=O)Nc3ncccc32)C(=O)N1CC(F)(F)F [ubrogepant] | reduced number of gaping events | reduced number of vomiting events
2 | detectable | detectable | C[C@@H]1[C@H](c2c(F)ccc(F)c2F)C[C@H](NC(=O)c2cnc3c(c2)C[C@@]2(C3)C(=O)Nc3ncccc32)C(=O)N1CC(F)(F)F [atogepant] | reduced number of gaping events | reduced number of vomiting events
3 | detectable | detectable | Cc1cc(C[C@@H](NC(=O)N2CCC(c3cc4ccccc4[nH]c3=O)CC2)C(=O)N2CCN(C3CCN(C)CC3)CC2)cc2cn[nH]c12 [zavegepant] | reduced number of gaping events | reduced number of vomiting events
4 | detectable | detectable | N[C@@H]1c2cccnc2[C@H](OC(=O)N2CCC(n3c(=O)[nH]c4ncccc43)CC2)CC[C@H]1c1cccc(F)c1F [rimegepant] | reduced number of gaping events | reduced number of vomiting events
